According to PubChem BioAssay (NCI):
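GI50 = concentration required for 50% inhibition of growth. The concentration for full growth arrest is given as TGI.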

Assays:
Assay in all cases: NCI anticancer screen, dose series, 384-well format
786-0 renal = tested on: 786-0 renal
A498 renal = tested on: A498 renal
A549 NSCLC = tested on: A549 NSCLC
ACHN renal = tested on: ACHN renal
BT-549 breast = tested on: BT-549 breast
CAKI-1 renal = tested on: CAKI-1 renal
CCRF-CEM leukemia = tested on: CCRF-CEM leukemia
COLO 205 colon = tested on: COLO 205 colon
DU-145 prostate = tested on: DU-145 prostate
EKVX NSCLC = tested on: EKVX NSCLC
HCC-2998 colon = tested on: HCC-2998 colon
HCT-15 colon = tested on: HCT-15 colon
HL-60(TB) leukemia = tested on: HL-60(TB) leukemia
HOP-62 NSCLC = tested on: HOP-62 NSCLC
HOP-92 NSCLC = tested on: HOP-92 NSCLC
HS 578T breast = tested on: HS 578T breast
HT29 colon = tested on: HT29 colon
IGROV1 ovarian = tested on: IGROV1 ovarian
KM12 colon = tested on: KM12 colon
M14 melanoma = tested on: M14 melanoma
MALME-3M melanoma = tested on: MALME-3M melanoma
MCF7 breast = tested on: MCF7 breast
MDA-MB-231 breast = tested on: MDA-MB-231 breast
MDA-MB-435 melanoma = tested on: MDA-MB-435 melanoma
MDA-MB-468 breast = tested on: MDA-MB-468 breast
MOLT-4 leukemia = tested on: MOLT-4 leukemia
NCI-H226 lung = tested on: NCI-H226 lung
NCI-H23 lung = tested on: NCI-H23 lung
NCI-H322M lung = tested on: NCI-H322M lung
NCI-H460 NSCLC = tested on: NCI-H460 NSCLC
NCI-H522 lung = tested on: NCI-H522 lung
NCI/ADR-RES ovarian = tested on: NCI/ADR-RES ovarian
OVCAR-3 ovarian = tested on: OVCAR-3 ovarian
OVCAR-4 ovarian = tested on: OVCAR-4 ovarian
OVCAR-5 ovarian = tested on: OVCAR-5 ovarian
OVCAR-8 ovarian = tested on: OVCAR-8 ovarian
PC-3 prostate = tested on: PC-3 prostate
RPMI-8226 leukemia = tested on: RPMI-8226 leukemia
RXF 393 renal = tested on: RXF 393 renal
SF-268 CNS = tested on: SF-268 CNS
SF-295 CNS = tested on: SF-295 CNS
SF-539 CNS = tested on: SF-539 CNS
SK-MEL-2 melanoma = tested on: SK-MEL-2 melanoma
SK-MEL-28 melanoma = tested on: SK-MEL-28 melanoma
SK-MEL-5 melanoma = tested on: SK-MEL-5 melanoma
SK-OV-3 ovarian = tested on: SK-OV-3 ovarian
SN12C renal = tested on: SN12C renal
SNB-19 CNS = tested on: SNB-19 CNS
SNB-75 CNS = tested on: SNB-75 CNS
SR leukemia = tested on: SR leukemia
SW-620 colon = tested on: SW-620 colon
T-47D breast = tested on: T-47D breast
TK-10 renal = tested on: TK-10 renal
U251 glioblastoma = tested on: U251 glioblastoma
UACC-257 melanoma = tested on: UACC-257 melanoma
UACC-62 melanoma = tested on: UACC-62 melanoma

C=C1C(=O)OC(CCCCCCCC)C1C(=O)O (configuration not stated)
GI50 (786-0 renal): 16.7 µM | TGI (786-0 renal): 31.6 µM | GI50 (A498 renal): 22.1 µM | TGI (A498 renal): 45.5 µM | GI50 (A549 NSCLC): 20.9 µM | TGI (A549 NSCLC): 41.8 µM | GI50 (ACHN renal): 21.4 µM | TGI (ACHN renal): 39.3 µM | GI50 (BT-549 breast): 14.8 µM | TGI (BT-549 breast): 38.3 µM | GI50 (CAKI-1 renal): 16.5 µM | TGI (CAKI-1 renal): 30.7 µM | GI50 (CCRF-CEM leukemia): 12.2 µM | TGI (CCRF-CEM leukemia): 24.8 µM | GI50 (COLO 205 colon): 25.5 µM | TGI (COLO 205 colon): 40.4 µM | GI50 (DU-145 prostate): 17.4 µM | TGI (DU-145 prostate): 31.5 µM | GI50 (EKVX NSCLC): 20.4 µM | TGI (EKVX NSCLC): 37.7 µM | GI50 (HCC-2998 colon): 20.6 µM | TGI (HCC-2998 colon): 35.2 µM | GI50 (HCT-15 colon): 19.4 µM | TGI (HCT-15 colon): 37.1 µM | GI50 (HL-60(TB) leukemia): 13.5 µM | TGI (HL-60(TB) leukemia): 26.4 µM | GI50 (HOP-62 NSCLC): 12.9 µM | TGI (HOP-62 NSCLC): 28.6 µM | GI50 (HOP-92 NSCLC): 19.8 µM | TGI (HOP-92 NSCLC): 41.1 µM | GI50 (HS 578T breast): 12.2 µM | TGI (HS 578T breast): 25.5 µM | GI50 (HT29 colon): 23.4 µM | TGI (HT29 colon): 49.4 µM | GI50 (IGROV1 ovarian): 19.2 µM | TGI (IGROV1 ovarian): 37.4 µM | GI50 (KM12 colon): 14.6 µM | TGI (KM12 colon): 28.2 µM | GI50 (M14 melanoma): 17.8 µM | TGI (M14 melanoma): 34.5 µM | GI50 (MALME-3M melanoma): 15.5 µM | TGI (MALME-3M melanoma): 29.2 µM | GI50 (MCF7 breast): 21.1 µM | TGI (MCF7 breast): 39.6 µM | GI50 (MDA-MB-231 breast): 30.3 µM | TGI (MDA-MB-231 breast): > 100 µM | GI50 (MDA-MB-435 melanoma): 23.3 µM | TGI (MDA-MB-435 melanoma): 44 µM | GI50 (MDA-MB-468 breast): 3.04 µM | TGI (MDA-MB-468 breast): 6.75 µM | GI50 (MOLT-4 leukemia): 14.6 µM | TGI (MOLT-4 leukemia): 27.9 µM | GI50 (NCI-H226 lung): 27.9 µM | TGI (NCI-H226 lung): 49.7 µM | GI50 (NCI-H23 lung): 14 µM | TGI (NCI-H23 lung): 27.6 µM | GI50 (NCI-H322M lung): 24.3 µM | TGI (NCI-H322M lung): 50.3 µM | GI50 (NCI-H460 NSCLC): 17.1 µM | TGI (NCI-H460 NSCLC): 31.3 µM | GI50 (NCI-H522 lung): 6.51 µM | TGI (NCI-H522 lung): 19.2 µM | GI50 (NCI/ADR-RES ovarian): 22.3 µM | TGI (NCI/ADR-RES ovarian): 46.2 µM | GI50 (OVCAR-3 ovarian): 12.8 µM | TGI (OVCAR-3 ovarian): 26.2 µM | GI50 (OVCAR-4 ovarian): 16.9 µM | TGI (OVCAR-4 ovarian): 32.1 µM | GI50 (OVCAR-5 ovarian): 39.3 µM | TGI (OVCAR-5 ovarian): > 100 µM | GI50 (OVCAR-8 ovarian): 24.9 µM | TGI (OVCAR-8 ovarian): 54.9 µM | GI50 (PC-3 prostate): 21 µM | TGI (PC-3 prostate): 39.1 µM | GI50 (RPMI-8226 leukemia): 10.3 µM | TGI (RPMI-8226 leukemia): 22.1 µM | GI50 (RXF 393 renal): 11.5 µM | TGI (RXF 393 renal): 24.1 µM | GI50 (SF-268 CNS): 19 µM | TGI (SF-268 CNS): 37 µM | GI50 (SF-295 CNS): 23.5 µM | TGI (SF-295 CNS): 57.5 µM | GI50 (SF-539 CNS): 20.1 µM | TGI (SF-539 CNS): 34.9 µM | GI50 (SK-MEL-2 melanoma): 28.7 µM | TGI (SK-MEL-2 melanoma): 46.6 µM | GI50 (SK-MEL-28 melanoma): 23.3 µM | TGI (SK-MEL-28 melanoma): 46.8 µM | GI50 (SK-MEL-5 melanoma): 18.3 µM | TGI (SK-MEL-5 melanoma): 32.5 µM | GI50 (SK-OV-3 ovarian): 23.6 µM | TGI (SK-OV-3 ovarian): 45.2 µM | GI50 (SN12C renal): 19 µM | TGI (SN12C renal): 36.1 µM | GI50 (SNB-19 CNS): 22.4 µM | TGI (SNB-19 CNS): 47.3 µM | GI50 (SNB-75 CNS): 16.1 µM | TGI (SNB-75 CNS): 32.1 µM | GI50 (SR leukemia): 3.03 µM | TGI (SR leukemia): 9.89 µM | GI50 (SW-620 colon): 18.7 µM | TGI (SW-620 colon): 33.2 µM | GI50 (T-47D breast): 18.2 µM | TGI (T-47D breast): 32.3 µM | GI50 (TK-10 renal): 34.3 µM | TGI (TK-10 renal): > 100 µM | GI50 (U251 glioblastoma): 20.6 µM | TGI (U251 glioblastoma): 37.9 µM | GI50 (UACC-257 melanoma): 12.7 µM | TGI (UACC-257 melanoma): 27.3 µM | GI50 (UACC-62 melanoma): 33.9 µM | TGI (UACC-62 melanoma): > 100 µM
